Experimental data published in patent US10550111B2, “Pyrimidine urea compound containing isoxazolines and use thereof” (SHENYANG SINOCHEM AGROCHEMICALS R&D CO., LTD, priority 2014, dated 2020).

Tests used:
Type in all cases: in vivo
[1] = test system: Zinnia elegans Jacq.; assay: Bioassay of herbicidal activity in greenhouse (further screening)
Method in brief: (§1)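 Visual growth inhibition rating (0 no effect to 100 all weeds dead or not emerged) after track-sprayer application (500 L/hm²) of emulsifiable concentrate. Treatments either pre-emergence, 24 h after sowing, or post-emergence at 2–3-leaf grass and 2–4-leaf broad-leaf stage, greenhouse-grown.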

[2] = test system: Echinochloa crus-galli (L.) Beauv.; assay: as above
Method in brief: as §1

[3] = test system: Abutilon theophrasti Medic.; assay: as above
Method in brief: as §1

[4] = test system: Setaria glauca (L.) Beauv.; assay: as above
Method in brief: as §1

[5] = test system: broad-leaf weeds and grass weeds; assay: General screening of herbicidal activity in greenhouse; conditions: 1000 g a.i./hm^2
Method in brief: as §1

[6] = test system: wheat; assay: Crop safety study in greenhouse; conditions: 7.5-37.5 g a.i./hm^2; pre-emergence and post-emergence application
From the text: (§2) Seeds of soybean, cotton, maize, wheat and rice were sown in nutrition soil in paper pot (9 cm diameter), covered with soil in 1 cm and grown in the greenhouse under good growth conditions (temperature, atmospheric humidity, water supply). The compounds of the present invention as emulsifiable concentrate, were applied in pre-emergence and post-emergence treatment by track sprayer (Engineer Research Ltd., pressure 1.95 kg/cm^2, volume 500 L/hm^2, track speed 1.48 km/h). Pre-emergence treatment was conducted after seeding 24 hours and post-emergence treatment was done when the respective weeds reached predetermined leaf stage (soybean and cotton at 2- to 4-leaf stage and maize, wheat and rice at 3-leaf stage), the state of growth of the respective crops were visually observed to determine the safety in accordance with the following evaluation standard.
(§3) Safety rating scale (%): 0 means no damage to crops; 100 means to kill crops completely.

[7] = test system: maize; assay: Crop safety study in greenhouse; conditions: 7.5-37.5 g a.i./hm^2; pre-emergence and post-emergence application
From the text: as §2, §3

[8] = test system: rice; assay: Crop safety study in greenhouse; conditions: 7.5-37.5 g a.i./hm^2; pre-emergence and post-emergence application
From the text: as §2, §3

Compound: CC(C)C(=O)OCC1(C)CC(c2cc(-n3c(=O)cc(C(F)(F)F)n(C)c3=O)c(F)cc2Cl)=NO1 (centres unmarked) [Compound 46]
- Growth inhibition rate, Post-emergence treatment, Zinnia elegans Jacq. ([1]; dose 7.5 g a.i./hm^2): 98%
- Growth inhibition rate, Post-emergence treatment, Zinnia elegans Jacq. ([1]; dose 15 g a.i./hm^2): 98%
- Growth inhibition rate, Post-emergence treatment, Zinnia elegans Jacq. ([1]; dose 37.5 g a.i./hm^2): 100%
- Growth inhibition rate, Post-emergence treatment, Zinnia elegans Jacq. ([1]; dose 150 g a.i./hm^2): 100%
- Growth inhibition rate, Post-emergence treatment, Zinnia elegans Jacq. ([1]; dose 600 g a.i./hm^2): 100%
- Growth inhibition rate, Pre-emergence treatment, Zinnia elegans Jacq. ([1]; dose 7.5 g a.i./hm^2): 40%
- Growth inhibition rate, Pre-emergence treatment, Zinnia elegans Jacq. ([1]; dose 15 g a.i./hm^2): 45%
- Growth inhibition rate, Pre-emergence treatment, Zinnia elegans Jacq. ([1]; dose 37.5 g a.i./hm^2): 95%
- Growth inhibition rate, Pre-emergence treatment, Zinnia elegans Jacq. ([1]; dose 150 g a.i./hm^2): 100%
- Growth inhibition rate, Pre-emergence treatment, Zinnia elegans Jacq. ([1]; dose 600 g a.i./hm^2): 100%
- Growth inhibition rate, Post-emergence treatment, Echinochloa crus-galli (L.) Beauv. ([2]; dose 7.5 g a.i./hm^2): 20%
- Growth inhibition rate, Post-emergence treatment, Echinochloa crus-galli (L.) Beauv. ([2]; dose 15 g a.i./hm^2): 25%
- Growth inhibition rate, Post-emergence treatment, Echinochloa crus-galli (L.) Beauv. ([2]; dose 37.5 g a.i./hm^2): 30%
- Growth inhibition rate, Post-emergence treatment, Echinochloa crus-galli (L.) Beauv. ([2]; dose 150 g a.i./hm^2): 75%
- Growth inhibition rate, Post-emergence treatment, Echinochloa crus-galli (L.) Beauv. ([2]; dose 600 g a.i./hm^2): 98%
- Growth inhibition rate, Pre-emergence treatment, Echinochloa crus-galli (L.) Beauv. ([2]; dose 7.5 g a.i./hm^2): 10%
- Growth inhibition rate, Pre-emergence treatment, Echinochloa crus-galli (L.) Beauv. ([2]; dose 15 g a.i./hm^2): 15%
- Growth inhibition rate, Pre-emergence treatment, Echinochloa crus-galli (L.) Beauv. ([2]; dose 37.5 g a.i./hm^2): 50%
- Growth inhibition rate, Pre-emergence treatment, Echinochloa crus-galli (L.) Beauv. ([2]; dose 150 g a.i./hm^2): 95%
- Growth inhibition rate, Pre-emergence treatment, Echinochloa crus-galli (L.) Beauv. ([2]; dose 600 g a.i./hm^2): 100%
- Growth inhibition rate, Post-emergence treatment, Abutilon theophrasti Medic. ([3]; dose 7.5 g a.i./hm^2): 98%
- Growth inhibition rate, Post-emergence treatment, Abutilon theophrasti Medic. ([3]; dose 15 g a.i./hm^2): 100%
- Growth inhibition rate, Post-emergence treatment, Abutilon theophrasti Medic. ([3]; dose 37.5 g a.i./hm^2): 100%
- Growth inhibition rate, Post-emergence treatment, Abutilon theophrasti Medic. ([3]; dose 150 g a.i./hm^2): 100%
- Growth inhibition rate, Post-emergence treatment, Abutilon theophrasti Medic. ([3]; dose 600 g a.i./hm^2): 100%
- Growth inhibition rate, Pre-emergence treatment, Abutilon theophrasti Medic. ([3]; dose 7.5 g a.i./hm^2): 50%
- Growth inhibition rate, Pre-emergence treatment, Abutilon theophrasti Medic. ([3]; dose 15 g a.i./hm^2): 100%
- Growth inhibition rate, Pre-emergence treatment, Abutilon theophrasti Medic. ([3]; dose 37.5 g a.i./hm^2): 100%
- Growth inhibition rate, Pre-emergence treatment, Abutilon theophrasti Medic. ([3]; dose 150 g a.i./hm^2): 100%
- Growth inhibition rate, Pre-emergence treatment, Abutilon theophrasti Medic. ([3]; dose 600 g a.i./hm^2): 100%
- Growth inhibition rate, Post-emergence treatment, Setaria glauca (L.) Beauv. ([4]; dose 7.5 g a.i./hm^2): 45%
- Growth inhibition rate, Post-emergence treatment, Setaria glauca (L.) Beauv. ([4]; dose 15 g a.i./hm^2): 55%
- Growth inhibition rate, Post-emergence treatment, Setaria glauca (L.) Beauv. ([4]; dose 37.5 g a.i./hm^2): 55%
- Growth inhibition rate, Post-emergence treatment, Setaria glauca (L.) Beauv. ([4]; dose 150 g a.i./hm^2): 80%
- Growth inhibition rate, Post-emergence treatment, Setaria glauca (L.) Beauv. ([4]; dose 600 g a.i./hm^2): 100%
- Growth inhibition rate, Pre-emergence treatment, Setaria glauca (L.) Beauv. ([4]; dose 7.5 g a.i./hm^2): 75%
- Growth inhibition rate, Pre-emergence treatment, Setaria glauca (L.) Beauv. ([4]; dose 15 g a.i./hm^2): 60%
- Growth inhibition rate, Pre-emergence treatment, Setaria glauca (L.) Beauv. ([4]; dose 37.5 g a.i./hm^2): 95%
- Growth inhibition rate, Pre-emergence treatment, Setaria glauca (L.) Beauv. ([4]; dose 150 g a.i./hm^2): 100%
- Growth inhibition rate, Pre-emergence treatment, Setaria glauca (L.) Beauv. ([4]; dose 600 g a.i./hm^2): 100%
- pre-emergence and post-emergence herbicidal activity against broad-leaf weeds and grass weeds [5]: good
- Crop safety, wheat [6]: good safety
- Crop safety, maize [7]: good safety
- Crop safety, rice [8]: good safety
